According to ChEMBL document CHEMBL4138123, “Design, synthesis and biological evaluation of novel pyrazolochalcones as potential modulators of PI3K/Akt/mTOR pathway and inducers of apoptosis in breast cancer cells” (Eur J Med Chem, 2017):

Tests used:
Format in all cases: functional
CCRF-CEM = experiment: Cytotoxicity against human CCRF-CEM cells assessed as growth inhibition after 48 hrs by sulforhodamine B assay
K562 = experiment: Cytotoxicity against human K562 cells assessed as growth inhibition after 48 hrs by sulforhodamine B assay; conditions: K562, 48 h
RPMI-8226 [1] = experiment: Cytotoxicity against human RPMI8226 cells assessed as growth inhibition after 48 hrs by sulforhodamine B assay; conditions: RPMI-8226, 48 h
SR = experiment: Cytotoxicity against human SR cells assessed as growth inhibition after 48 hrs by sulforhodamine B assay; conditions: for CC50: read-out: LC50 (the source's name)
NCI-H23 = experiment: Cytotoxicity against human NCI-H23 cells assessed as growth inhibition after 48 hrs by sulforhodamine B assay; conditions: NCI-H23, 48 h; for CC50: read-out: LC50 (the source's name)
NCI-H460 = experiment: Cytotoxicity against human NCI-H460 cells assessed as growth inhibition after 48 hrs by sulforhodamine B assay; conditions: NCI-H460, 48 h
HCT-116 [2] = experiment: Cytotoxicity against human HCT116 cells assessed as growth inhibition after 48 hrs by sulforhodamine B assay; conditions: HCT-116, 48 h
SF-268 = experiment: Cytotoxicity against human SF268 cells assessed as growth inhibition after 48 hrs by sulforhodamine B assay; conditions: SF-268, 48 h; for CC50: read-out: LC50 (the source's name)
M14 = experiment: Cytotoxicity against human M14 cells assessed as growth inhibition after 48 hrs by sulforhodamine B assay; conditions: M14, 48 h
SK-MEL-5 = experiment: Cytotoxicity against human SK-MEL-5 cells assessed as growth inhibition after 48 hrs by sulforhodamine B assay; conditions: SK-MEL-5, 48 h
OVCAR-5 [3] = experiment: Cytotoxicity against human OVCAR5 cells assessed as growth inhibition after 48 hrs by sulforhodamine B assay; conditions: OVCAR-5, 48 h
OVCAR-5 [4] = experiment: Cytotoxicity against human OVCAR5 cells assessed as cell growth at 0.01 uM after 48 hrs by sulforhodamine B assay relative to control; conditions: OVCAR-5, 48 h, read-out: Activity
HT-29 = experiment: Cytotoxicity against human HT-29 cells assessed as cell growth at 0.01 uM after 48 hrs by sulforhodamine B assay relative to control; conditions: HT-29, 48 h, read-out: Activity
COLO 205 [5] = experiment: Cytotoxicity against human COLO205 cells assessed as cell growth at 0.01 uM after 48 hrs by sulforhodamine B assay relative to control; conditions: COLO 205, 48 h, read-out: Activity
MOLT-4 = experiment: Cytotoxicity against human MOLT4 cells assessed as cell growth at 0.01 uM after 48 hrs by sulforhodamine B assay relative to control; conditions: MOLT-4, 48 h, read-out: Activity
T47D [6] = experiment: Cytotoxicity against human T47D cells assessed as cell growth at 0.01 uM after 48 hrs by sulforhodamine B assay relative to control; conditions: read-out: Activity
HCC 2998 = experiment: Cytotoxicity against human HCC2998 cells assessed as cell growth at 0.1 uM after 48 hrs by sulforhodamine B assay relative to control; conditions: HCC 2998, 48 h, read-out: Activity
UACC-257 = experiment: Cytotoxicity against human UACC257 cells assessed as cell growth at 0.1 uM after 48 hrs by sulforhodamine B assay relative to control; conditions: UACC-257, 48 h, read-out: Activity
OVCAR-3 = experiment: Cytotoxicity against human OVCAR3 cells assessed as cell growth at 0.1 uM after 48 hrs by sulforhodamine B assay relative to control; conditions: OVCAR-3, 48 h, read-out: Activity
786-0 = experiment: Cytotoxicity against human 786-0 cells assessed as cell growth at 0.1 uM after 48 hrs by sulforhodamine B assay relative to control; conditions: 786-0, 48 h, read-out: Activity
PC-3 = experiment: Cytotoxicity against human PC3 cells assessed as cell growth at 0.1 uM after 48 hrs by sulforhodamine B assay relative to control; conditions: PC-3, 48 h, read-out: Activity
DU-145 [7] = experiment: Cytotoxicity against human DU145 cells assessed as cell growth at 0.1 uM after 48 hrs by sulforhodamine B assay relative to control; conditions: DU-145, 48 h, read-out: Activity
T47D [8] = experiment: Cytotoxicity against human T47D cells assessed as cell growth at 0.1 uM after 48 hrs by sulforhodamine B assay relative to control; conditions: read-out: Activity
HL-60(TB) [9] = experiment: Cytotoxicity against human HL-60(TB) cells assessed as cell growth at 1 uM after 48 hrs by sulforhodamine B assay relative to control; conditions: HL-60, 48 h, read-out: Activity
RPMI-8226 [10] = experiment: Cytotoxicity against human RPMI8226 cells assessed as cell growth at 1 uM after 48 hrs by sulforhodamine B assay relative to control; conditions: RPMI-8226, 48 h, read-out: Activity
HOP-62 = experiment: Cytotoxicity against human HOP62 cells assessed as cell growth at 1 uM after 48 hrs by sulforhodamine B assay relative to control; conditions: HOP-62, 48 h, read-out: Activity
NCI-H322M = experiment: Cytotoxicity against human NCI-H322M cells assessed as cell growth at 1 uM after 48 hrs by sulforhodamine B assay relative to control; conditions: read-out: Activity
HCT-116 [11] = experiment: Cytotoxicity against human HCT116 cells assessed as cell growth at 1 uM after 48 hrs by sulforhodamine B assay relative to control; conditions: HCT-116, 48 h, read-out: Activity
SW-620 = experiment: Cytotoxicity against human SW620 cells assessed as cell growth at 1 uM after 48 hrs by sulforhodamine B assay relative to control; conditions: SW-620, 48 h, read-out: Activity
Hs-578T = experiment: Cytotoxicity against human Hs 578T cells assessed as cell growth at 1 uM after 48 hrs by sulforhodamine B assay relative to control; conditions: read-out: Activity
HL-60(TB) [12] = experiment: Cytotoxicity against human HL-60(TB) cells assessed as cell growth at 10 uM after 48 hrs by sulforhodamine B assay relative to control; conditions: HL-60, 48 h, read-out: Activity
RPMI-8226 [13] = experiment: Cytotoxicity against human RPMI8226 cells assessed as cell growth at 10 uM after 48 hrs by sulforhodamine B assay relative to control; conditions: RPMI-8226, 48 h, read-out: Activity
ACHN = experiment: Cytotoxicity against human ACHN cells assessed as cell growth at 10 uM after 48 hrs by sulforhodamine B assay relative to control; conditions: read-out: Activity
DU-145 [14] = experiment: Cytotoxicity against human DU145 cells assessed as cell growth at 10 uM after 48 hrs by sulforhodamine B assay relative to control; conditions: DU-145, 48 h, read-out: Activity
COLO 205 [15] = experiment: Cytotoxicity against human COLO205 cells assessed as cell growth at 100 uM after 48 hrs by sulforhodamine B assay relative to control; conditions: COLO 205, 48 h, read-out: Activity
OVCAR-4 = experiment: Cytotoxicity against human OVCAR4 cells assessed as cell growth at 100 uM after 48 hrs by sulforhodamine B assay relative to control; conditions: OVCAR-4, 48 h, read-out: Activity

COc1ccc(-c2cc(/C=C/C(=O)c3ccc(N)cc3)[nH]n2)cc1OC
GI50 (CCRF-CEM): 1.74 µM
LC50 (concentration killing 50% of cells) (CCRF-CEM): > 100 µM
TGI (CCRF-CEM): 7.81 µM
GI50 (K562): 2.03 µM
LC50 (concentration killing 50% of cells) (K562): > 100 µM
TGI (K562): 36.4 µM
GI50 (RPMI-8226 [1]): 1.28 µM
LC50 (RPMI-8226 [1]): > 100 µM
TGI (RPMI-8226 [1]): 5.52 µM
GI50 (SR): 0.58 µM
TGI (SR): 5.31 µM
CC50 (SR): > 100 µM
GI50 (NCI-H23): 4.21 µM
TGI (NCI-H23): 19.3 µM
CC50 (NCI-H23): 95.6 µM
GI50 (NCI-H460): 2.03 µM
LC50 (NCI-H460): 10.6 µM
TGI (NCI-H460): 4.53 µM
GI50 (HCT-116 [2]): 1.71 µM
LC50 (HCT-116 [2]): 7.19 µM
TGI (HCT-116 [2]): 3.51 µM
GI50 (SF-268): 1.89 µM
TGI (SF-268): 4.4 µM
CC50 (SF-268): 11.2 µM
GI50 (M14): 2.28 µM
LC50 (concentration killing 50% of cells) (M14): 15 µM
TGI (M14): 5.11 µM
GI50 (SK-MEL-5): 3.16 µM
LC50 (concentration killing 50% of cells) (SK-MEL-5): 36.1 µM
TGI (SK-MEL-5): 11.5 µM
GI50 (OVCAR-5 [3]): 2.62 µM
LC50 (OVCAR-5 [3]): 36.3 µM
TGI (OVCAR-5 [3]): 7.94 µM
growth at 0.01 µM (OVCAR-5 [4]): 91%
growth at 0.01 µM (HT-29): 98%
growth at 0.01 µM (COLO 205 [5]): 92%
growth at 0.01 µM (MOLT-4): 108%
growth at 0.01 µM (T47D [6]): 85%
growth at 0.1 µM (HCC 2998): 100%
growth at 0.1 µM (UACC-257): 90%
growth at 0.1 µM (OVCAR-3): 108%
growth at 0.1 µM (786-0): 95%
growth at 0.1 µM (PC-3): 95%
growth at 0.1 µM (DU-145 [7]): 110%
growth at 0.1 µM (T47D [8]): 90%
growth at 1 µM (HL-60(TB) [9]): 97%
growth at 1 µM (RPMI-8226 [10]): 59%
growth at 1 µM (HOP-62): 92%
growth at 1 µM (NCI-H322M): 95%
growth at 1 µM (HCT-116 [11]): 87%
growth at 1 µM (SW-620): 95%
growth at 1 µM (Hs-578T): 96%
growth at 10 µM (HL-60(TB) [12]): 10%
growth at 10 µM (RPMI-8226 [13]): -20%
growth at 10 µM (ACHN): -82%
growth at 10 µM (DU-145 [14]): 15%
growth at 100 µM (COLO 205 [15]): -78%
growth at 100 µM (OVCAR-4): -98%

COc1ccc(C(=O)/C=C/c2cc(-c3ccc4c(c3)OCO4)n[nH]2)cc1OC
LC50 (concentration killing 50% of cells) (CCRF-CEM): > 100 µM
TGI (CCRF-CEM): 9.58 µM
LC50 (concentration killing 50% of cells) (K562): > 100 µM
TGI (K562): 16.7 µM
LC50 (RPMI-8226 [1]): > 100 µM
TGI (RPMI-8226 [1]): 5.24 µM
TGI (SR): 6.48 µM
CC50 (SR): > 100 µM
TGI (NCI-H23): 19.6 µM
CC50 (NCI-H23): 66 µM
LC50 (NCI-H460): 9.07 µM
TGI (NCI-H460): 4.05 µM
LC50 (HCT-116 [2]): 56.2 µM
TGI (HCT-116 [2]): 7.99 µM
TGI (SF-268): 7.61 µM
CC50 (SF-268): 40.5 µM
LC50 (concentration killing 50% of cells) (M14): 58.4 µM
TGI (M14): 21.4 µM
LC50 (concentration killing 50% of cells) (SK-MEL-5): 46.4 µM
TGI (SK-MEL-5): 19.9 µM
LC50 (OVCAR-5 [3]): > 100 µM
TGI (OVCAR-5 [3]): 23.2 µM
growth at 0.01 µM (OVCAR-5 [4]): 96%
growth at 0.01 µM (HT-29): 93%
growth at 0.01 µM (COLO 205 [5]): 102%
growth at 0.01 µM (MOLT-4): 97%
growth at 0.01 µM (T47D [6]): 90%
growth at 0.1 µM (HCC 2998): 97%
growth at 0.1 µM (UACC-257): 95%
growth at 0.1 µM (OVCAR-3): 104%
growth at 0.1 µM (786-0): 95%
growth at 0.1 µM (PC-3): 95%
growth at 0.1 µM (DU-145 [7]): 100%
growth at 0.1 µM (T47D [8]): 94%
growth at 1 µM (HL-60(TB) [9]): 89%
growth at 1 µM (RPMI-8226 [10]): 51%
growth at 1 µM (HOP-62): 87%
growth at 1 µM (NCI-H322M): 92%
growth at 1 µM (HCT-116 [11]): 87%
growth at 1 µM (SW-620): 92%
growth at 1 µM (Hs-578T): 94%
growth at 10 µM (HL-60(TB) [12]): 3%
growth at 10 µM (RPMI-8226 [13]): -20%
growth at 10 µM (ACHN): 13%
growth at 10 µM (DU-145 [14]): -51%
growth at 100 µM (COLO 205 [15]): -83%
growth at 100 µM (OVCAR-4): -12%
